Experimental data: ChEMBL document CHEMBL5608208, “Design, synthesis of griseofamine A derivatives and development of potent antibacterial agents against MRSA” (Eur J Med Chem, 2024)
≈ marks a conversion by molar mass, not a printed value.

Experiments:
Format in all cases: functional
Staphylococcus aureus [1] = assay: Antibacterial activity against Staphylococcus aureus ATCC 29213 incubated for 18 hrs by serial two-fold dilution method
[2] = test system: Staphylococcus epidermidis; assay: Antibacterial activity against Staphylococcus epidermidis ATCC 12228 incubated for 18 hrs by serial two-fold dilution method
Staphylococcus aureus [3] = assay: Antibacterial activity against methicillin resistant Staphylococcus aureus ATCC 33592 incubated for 18 hrs by serial two-fold dilution method
Staphylococcus aureus [4] = assay: Antibacterial activity against methicillin resistant Staphylococcus aureus ATCC 43300 incubated for 18 hrs by serial two-fold dilution method
Staphylococcus aureus [5] = assay: Potency index, ratio of griseofamine A MIC to test compound MIC for antibacterial activity against methicillin resistant Staphylococcus aureus ATCC 33592
Staphylococcus aureus [6] = assay: Potency index, ratio of vancomycin MIC to test compound MIC for antibacterial activity against methicillin resistant Staphylococcus aureus ATCC 33592
Staphylococcus aureus [7] = assay: Potency index, ratio of griseofamine A MIC to test compound MIC for antibacterial activity against methicillin resistant Staphylococcus aureus ATCC 43300
Staphylococcus aureus [8] = assay: Potency index, ratio of vancomycin MIC to test compound MIC for antibacterial activity against methicillin resistant Staphylococcus aureus ATCC 43300
[9] = test system: Staphylococcus epidermidis; assay: Bactericidal activity against Staphylococcus epidermidis ATCC 12228 incubated for 18 to 24 hrs; settings: time 18-24 hrs
Staphylococcus aureus [10] = assay: Bactericidal activity against Staphylococcus aureus ATCC 29213 incubated for 18 to 24 hrs; settings: time 18-24 hrs
Staphylococcus aureus [11] = assay: Bactericidal activity against methicillin resistant Staphylococcus aureus ATCC 33592 incubated for 18 to 24 hrs; settings: time 18-24 hrs
Staphylococcus aureus [12] = assay: Bactericidal activity against methicillin resistant Staphylococcus aureus ATCC 43300 incubated for 18 to 24 hrs; settings: time 18-24 hrs

Row | SMILES | MIC (Staphylococcus aureus [1]) | MIC [2] | MIC (Staphylococcus aureus [3]) | MIC (Staphylococcus aureus [4]) | also measured
1 | Cc1ccc(/C(O)=C2\C(=O)[C@@H]3Cc4c([nH]c5ccccc45)[C@@H](c4ccc(-c5cc(F)cc(F)c5)cc4)N3C2=O)cc1 | 0.5 µg/mL (≈ 0.915 µM) | 0.25 µg/mL (≈ 0.457 µM) | 0.5 µg/mL (≈ 0.915 µM) | – | –
2 | C/C(O)=C1\C(=O)[C@@H]2Cc3c([nH]c4ccccc34)[C@@H](c3ccc(-c4ccccc4F)cc3)N2C1=O | 0.125 µg/mL (≈ 0.276 µM) | 0.25 µg/mL (≈ 0.553 µM) | 0.25 µg/mL (≈ 0.553 µM) | 0.25 µg/mL (≈ 0.553 µM) | –
3 | CC(C)=CCc1cccc2[nH]c3c(c12)C[C@H]1C(=O)/C(=C(\C)O)C(=O)N1[C@@H]3C | 8 µg/mL (≈ 22 µM) | 8 µg/mL (≈ 22 µM) | 8 µg/mL (≈ 22 µM) | 8 µg/mL (≈ 22 µM) | –
4 | CCC(=O)OC1=CC(=O)N2[C@H](c3ccc(-c4cc(F)cc(F)c4)cc3)c3[nH]c4ccccc4c3C[C@@H]12 | > 4 µg/mL | > 4 µg/mL | > 4 µg/mL | – | –
5 | C/C(N)=C1\C(=O)[C@@H]2Cc3c([nH]c4ccccc34)[C@@H](c3ccc(-c4ccccc4)cc3)N2C1=O | > 4 µg/mL | > 4 µg/mL | > 4 µg/mL | – | –
6 | C/C(O)=C1\C(=O)[C@@H]2Cc3c([nH]c4ccccc34)[C@@H](c3ccc(-c4ccc(F)cc4)o3)N2C1=O | 0.5 µg/mL (≈ 1.13 µM) | 0.5 µg/mL (≈ 1.13 µM) | 0.5 µg/mL (≈ 1.13 µM) | 0.5 µg/mL (≈ 1.13 µM) | –
7 | C/C(O)=C1\C(=O)[C@@H]2Cc3c(n(CC4CC4)c4ccccc34)[C@@H](c3ccc(-c4ccc(F)cc4)cc3)N2C1=O | 0.125 µg/mL (≈ 0.247 µM) | 0.25 µg/mL (≈ 0.494 µM) | 0.125 µg/mL (≈ 0.247 µM) | 0.125 µg/mL (≈ 0.247 µM) | –
8 | CC(=O)OC1=CC(=O)N2[C@H](c3ccc(-c4cc(F)cc(F)c4)cc3)c3[nH]c4ccccc4c3C[C@@H]12 | > 4 µg/mL | > 4 µg/mL | > 4 µg/mL | – | –
9 | C/C(O)=C1\C(=O)[C@@H]2Cc3c(n(C)c4ccccc34)[C@@H](c3ccc(-c4ccc(F)cc4)cc3)N2C1=O | 0.25 µg/mL (≈ 0.536 µM) | 0.063 µg/mL (≈ 0.135 µM) | 0.5 µg/mL (≈ 1.07 µM) | – | –
10 | C/C(O)=C1\C(=O)[C@@H]2Cc3c([nH]c4ccccc34)[C@@H](c3ccc(-c4ccc(C(F)(F)F)cc4)o3)N2C1=O | 0.25 µg/mL (≈ 0.508 µM) | 0.25 µg/mL (≈ 0.508 µM) | 0.25 µg/mL (≈ 0.508 µM) | 0.25 µg/mL (≈ 0.508 µM) | –
11 | O=C(OC1=CC(=O)N2[C@H](c3ccc(-c4cc(F)cc(F)c4)cc3)c3[nH]c4ccccc4c3C[C@@H]12)c1ccc(F)cc1 | > 4 µg/mL | > 4 µg/mL | > 4 µg/mL | – | –
12 | O=C1/C(=C(/O)c2ccc(F)cc2)C(=O)N2[C@H](c3ccc(-c4cc(F)cc(F)c4)cc3)c3[nH]c4ccccc4c3C[C@@H]12 | 0.5 µg/mL (≈ 0.908 µM) | 0.5 µg/mL (≈ 0.908 µM) | 0.5 µg/mL (≈ 0.908 µM) | – | –
13 | C/C(O)=C1\C(=O)[C@@H]2Cc3c([nH]c4ccccc34)[C@@H](c3ccc(-c4ccccc4C)cc3)N2C1=O | 0.125 µg/mL (≈ 0.279 µM) | 0.5 µg/mL (≈ 1.11 µM) | 0.25 µg/mL (≈ 0.557 µM) | – | –
14 | C/C(O)=C1\C(=O)[C@@H]2Cc3c([nH]c4ccccc34)[C@@H](c3ccc(-c4ccc(F)cc4F)cc3)N2C1=O | 0.125 µg/mL (≈ 0.266 µM) | 0.25 µg/mL (≈ 0.531 µM) | 0.25 µg/mL (≈ 0.531 µM) | 0.125 µg/mL (≈ 0.266 µM) | –
15 | Cc1ccc(C(=O)OC2=CC(=O)N3[C@H](c4ccc(-c5cc(F)cc(F)c5)cc4)c4[nH]c5ccccc5c4C[C@@H]23)cc1 | > 4 µg/mL | > 4 µg/mL | > 4 µg/mL | – | –
16 | C/C(O)=C1\C(=O)[C@@H]2Cc3c([nH]c4ccccc34)[C@@H](c3ccc(-c4cc(C(F)(F)F)cc(C(F)(F)F)c4)cc3)N2C1=O | 1 µg/mL (≈ 1.75 µM) | 1 µg/mL (≈ 1.75 µM) | 1 µg/mL (≈ 1.75 µM) | – | –
17 | C/C(O)=C1\C(=O)[C@@H]2Cc3c([nH]c4ccccc34)[C@@H](c3ccc(-c4ccc(C)cc4)cc3)N2C1=O | 0.125 µg/mL (≈ 0.279 µM) | 0.25 µg/mL (≈ 0.557 µM) | 0.25 µg/mL (≈ 0.557 µM) | 0.125 µg/mL (≈ 0.279 µM) | –

Row | SMILES | MIC (Staphylococcus aureus [1]) | MIC [2] | MIC (Staphylococcus aureus [3]) | MIC (Staphylococcus aureus [4]) | also measured
18 | C/C(N)=C1\C(=O)[C@@H]2Cc3c([nH]c4ccccc34)[C@@H](c3ccc(-c4ccc(OC(F)(F)F)cc4)cc3)N2C1=O | 4 µg/mL (≈ 7.73 µM) | 4 µg/mL (≈ 7.73 µM) | 4 µg/mL (≈ 7.73 µM) | – | –
19 | CCc1ccc(-c2ccc([C@@H]3c4[nH]c5ccccc5c4C[C@H]4C(=O)/C(=C(\C)O)C(=O)N34)cc2)cc1 | 0.5 µg/mL (≈ 1.08 µM) | 0.25 µg/mL (≈ 0.54 µM) | 0.25 µg/mL (≈ 0.54 µM) | 0.25 µg/mL (≈ 0.54 µM) | –
20 | C/C(O)=C1\C(=O)[C@@H]2Cc3c([nH]c4ccccc34)[C@@H](c3ccc(-c4cc(F)c(F)c(F)c4)cc3)N2C1=O | 0.5 µg/mL (≈ 1.02 µM) | 1 µg/mL (≈ 2.05 µM) | 1 µg/mL (≈ 2.05 µM) | – | –
21 | CCn1c2c(c3ccccc31)C[C@H]1C(=O)/C(=C(\C)O)C(=O)N1[C@@H]2c1ccc(-c2ccc(F)cc2)cc1 | 0.25 µg/mL (≈ 0.52 µM) | 0.25 µg/mL (≈ 0.52 µM) | 0.25 µg/mL (≈ 0.52 µM) | 0.125 µg/mL (≈ 0.26 µM) | –
22 | C/C(O)=C1\C(=O)[C@@H]2Cc3c(n(S(=O)(=O)c4ccc(C)cc4)c4ccccc34)[C@@H](c3ccc(-c4ccc(F)cc4)cc3)N2C1=O | 2 µg/mL (≈ 3.3 µM) | 0.25 µg/mL (≈ 0.412 µM) | 2 µg/mL (≈ 3.3 µM) | – | –
23 | C/C(O)=C1\C(=O)[C@@H]2Cc3c([nH]c4ccccc34)[C@@H](c3ccc(-c4ccc(OC(F)(F)F)cc4)cc3)N2C1=O | 0.063 µg/mL (≈ 0.122 µM) | 0.125 µg/mL (≈ 0.241 µM) | 0.063 µg/mL (≈ 0.122 µM) | 0.063 µg/mL (≈ 0.122 µM) | Ratio (Staphylococcus aureus [5]): 128; Ratio (Staphylococcus aureus [6]): 8; Ratio (Staphylococcus aureus [7]): 128; Ratio (Staphylococcus aureus [8]): 8; MBC [9]: 1 µg/mL (≈ 1.93 µM); MBC (Staphylococcus aureus [10]): 4 µg/mL (≈ 7.71 µM); MBC (Staphylococcus aureus [11]): 4 µg/mL (≈ 7.71 µM); MBC (Staphylococcus aureus [12]): 4 µg/mL (≈ 7.71 µM)
24 | O=C(OC1=CC(=O)N2[C@H](c3ccc(-c4cc(F)cc(F)c4)cc3)c3[nH]c4ccccc4c3C[C@@H]12)c1cccs1 | > 4 µg/mL | > 4 µg/mL | > 4 µg/mL | – | –
25 | CC/C(O)=C1\C(=O)[C@@H]2Cc3c([nH]c4ccccc34)[C@@H](c3ccc(-c4cc(F)cc(F)c4)cc3)N2C1=O | 0.063 µg/mL (≈ 0.13 µM) | 0.125 µg/mL (≈ 0.258 µM) | 0.063 µg/mL (≈ 0.13 µM) | 0.063 µg/mL (≈ 0.13 µM) | –
26 | O=C1/C(=C(/O)c2ccccc2)C(=O)N2[C@H](c3ccc(-c4cc(F)cc(F)c4)cc3)c3[nH]c4ccccc4c3C[C@@H]12 | 0.25 µg/mL (≈ 0.469 µM) | 0.25 µg/mL (≈ 0.469 µM) | 0.125 µg/mL (≈ 0.235 µM) | 0.125 µg/mL (≈ 0.235 µM) | –
27 | C/C(O)=C1\C(=O)[C@@H]2Cc3c([nH]c4ccccc34)[C@@H](c3ccc(-c4cccc(C(F)(F)F)c4)cc3)N2C1=O | 0.5 µg/mL (≈ 0.995 µM) | 0.063 µg/mL (≈ 0.125 µM) | 0.5 µg/mL (≈ 0.995 µM) | – | –
28 | O=C1/C(=C(/O)c2cccs2)C(=O)N2[C@H](c3ccc(-c4cc(F)cc(F)c4)cc3)c3[nH]c4ccccc4c3C[C@@H]12 | 0.25 µg/mL (≈ 0.464 µM) | 0.25 µg/mL (≈ 0.464 µM) | 0.25 µg/mL (≈ 0.464 µM) | 0.125 µg/mL (≈ 0.232 µM) | –
29 | O=C1/C(=C(/O)c2ccc3ccccc3c2)C(=O)N2[C@H](c3ccc(-c4cc(F)cc(F)c4)cc3)c3[nH]c4ccccc4c3C[C@@H]12 | 4 µg/mL (≈ 6.87 µM) | 2 µg/mL (≈ 3.43 µM) | 2 µg/mL (≈ 3.43 µM) | – | –
30 | O=C(OC1=CC(=O)N2[C@H](c3ccc(-c4cc(F)cc(F)c4)cc3)c3[nH]c4ccccc4c3C[C@@H]12)c1ccc2ccccc2c1 | 4 µg/mL (≈ 6.87 µM) | > 4 µg/mL | 2 µg/mL (≈ 3.43 µM) | – | –
31 | O=C1CC(=O)N2[C@H](c3ccc(-c4cc(F)cc(F)c4)cc3)c3[nH]c4ccccc4c3C[C@@H]12 | > 4 µg/mL | > 4 µg/mL | 4 µg/mL (≈ 9.34 µM) | – | –
32 | O=C(OC1=CC(=O)N2[C@H](c3ccc(-c4cc(F)cc(F)c4)cc3)c3[nH]c4ccccc4c3C[C@@H]12)c1ccccc1 | > 4 µg/mL | > 4 µg/mL | > 4 µg/mL | – | –
33 | C/C(O)=C1\C(=O)[C@@H]2Cc3c([nH]c4ccccc34)[C@@H](c3ccc(-c4cccc(F)c4)cc3)N2C1=O | 0.125 µg/mL (≈ 0.276 µM) | 0.25 µg/mL (≈ 0.553 µM) | 0.25 µg/mL (≈ 0.553 µM) | – | –
